Experimental data from patent US20240174649A1, “CULLIN-RING E3 UBIQUITIN LIGASE 4 INHIBITOR COMPOUNDS AND METHODS OF THEIR USE” (ICAHN SCHOOL OF MEDICINE AT MOUNT SINAI, priority 2021, published 2024).

Experiments:
[1] = biological target: T1, ROC1-CUL1 CTD (Homo sapiens (Human), UniProt Q13616); test: Ligand binding by MST; conditions: Table 5, MST; read-out: E3 binding Kd
Description: E3 ligase complex (˜2 nmol) was labeled with fluorescent dye using Monolith NT Protein Labeling Kit Red-NHS (Nanotemper) in the presence of 20 mM MES pH 6.0 and 150 mM NaCl. Excess dye was removed using the included gravity flow column and eluted in storage buffer containing 20 mM Tris-HCl, pH 7.4, 150 mM NaCl, and 10% glycerol. The fluorescent E3 complex (˜0.01-0.06 μM) was mixed with increasing amount of compound in a buffer (20 μl) that contains phosphate-buffered saline, 0.1% TWEEN-20 and 2% prionex. Following incubation at room temperature for 30 min, the reaction mixture loaded into premium coated capillaries and analyzed in the Monolith NT.115 machine (Nanotemper). Thermophoresis was recorded for each sample and binding curve was generated and Kd was calculated using the included software. For reactions where significant ligand specific fluorescence quenching occurred (verified by manufacturer's SDS Denaturation-test protocol), the initial fluorescence quenching data was used directly to calculate the binding curve and Kd.

[2] = biological target: E3 CRL4^CRBN (Homo sapiens (Human), UniProt Q13619); test: Lenalidomide-dependent ubiquitination of CK1α by CRL4^CRBN; type: biochemical; conditions: at 30 μM
Description: To prepare Flag-CK1α as a substrate for ubiquitination experiments described in FIGS. 2A-E, the expression vector (purchased from Addgene) was introduced to HEK-293T cells by transfection using Lipofectamine RNAIMAX (ThermoFisher) according to manufacturer's protocols. Cell extracts were prepared and the concentration of Flag-CK1α was determined using immunoblot analysis with purified GST-CK1α (Sigma) as a standard. Typically, 50-100 μl of extracts was used to attach to ˜15 μl of M2 beads (Sigma) at 4° C. for 2 hours. Unbound materials were removed by washing (first three times with a washing buffer containing 50 mM Tris-HCl, pH8.0, 1% Triton X-100, 0.5M NaCl, and then twice with buffer A plus 50 mM NaCl) and the resulting beads were used in the ubiquitination assay (15 μl). The concentration of Flag-CK1α was determined to be ˜100 nM.
Immobilized, Flag-CK1α-containing beads were initially incubated with a reaction mixture (10 μl) containing 50 mM Tris-HCl (pH7.4), 0.5 mM DTT, 0.1 mg/ml of BSA, 5 mM MgCl2, 100 nM CRL4^CRBN, 1 μM Lenalidomide (Selleckchem), 1 μM Fluorescein-Ub, 100 nM E1, and 1 μM UbcH5c. ATP (20 mM) was added last to initiate the reaction. The reaction was incubated on a thermomixer (1,300 rpm; Eppendorf) at 37° C. for 5 min. The resulting beads were then added with a second reaction mixture (5 μl) containing 50 mM Tris-HCl (pH7.4), 0.5 mM DTT, 0.1 mg/ml of BSA, 5 mM MgCl2, 4 μM I-Ub-Q31C/K48R, and 1 μM Cdc34b, in the presence or absence of E3 inhibitors as specified. The reaction was incubated on a thermomixer at 37° C. for times as indicated. The concentrations of enzymes, Ubs, and compounds stated above were adjusted based on a final volume of 15 μl. The beads were then washed using conditions as described above. Materials eluted from the beads were separated by 4-20% SDS-PAGE followed by detection with fluorescence scanning (Typhoon 9500) or immunoblot using anti-CK1α antibody (Abcam). […]

[3] = biological target: ROC1-CUL1 (Homo sapiens (Human), UniProt Q13616); test: Gel-based di-Ub synthesis; type: biochemical
Description: For the experiment shown in FIG. 7 and FIGS. 8A-B, the di-Ub synthesis reaction was carried out by preassembling the donor Ub mix. The donor Ub mixture (5 μl) contained 50 mM Tris HCl (pH 7.4), 5 mM MgCl2, 2 mM ATP, 0.5 mM DTT, 0.1 mg/mL BSA, 1 μM Ub-NC-I555, 0.1 μM E1, and 2 μM Cdc34b. The reaction was incubated for 5 min at 37° C. Compounds, in the amounts indicated, were added followed by the addition of ROC1-CUL1 (or related E3 subcomplex) in amounts as indicated and 10 μM PK-Ub (1-74) (as a receptor). The final volume was adjusted to 10 μl. The reaction was incubated for 10 min at 37° C.
For the experiments shown in FIG. 8C and FIG. 9, the reaction was assembled in a 10-μl mixture containing 50 mM Tris HCl (pH 7.4), 5 mM MgCl2, 0.5 mM DTT, 0.1 mg/mL BSA, 0.05 μM Ub-NC-I555, 2,5 μM PK-Ub (1-74), 0.1 μM E1, 1 μM Cdc34b, and 80 nM ROC1-CUL1 with or without compound. The reaction was initiated by the addition of 2 mM ATP. The products were separated by 4-20% SDS/PAGE and were visualized and quantified on a Typhoon FLA 9500 laser scanner (GE).

[4] = biological target: T1, ROC1-CUL1 CTD; test: FRET K48 di-Ub synthesis assay; type: biochemical; conditions: HTS screening conditions, read-out: inhibition of the reaction

T1 sequence (Q13616 411-776): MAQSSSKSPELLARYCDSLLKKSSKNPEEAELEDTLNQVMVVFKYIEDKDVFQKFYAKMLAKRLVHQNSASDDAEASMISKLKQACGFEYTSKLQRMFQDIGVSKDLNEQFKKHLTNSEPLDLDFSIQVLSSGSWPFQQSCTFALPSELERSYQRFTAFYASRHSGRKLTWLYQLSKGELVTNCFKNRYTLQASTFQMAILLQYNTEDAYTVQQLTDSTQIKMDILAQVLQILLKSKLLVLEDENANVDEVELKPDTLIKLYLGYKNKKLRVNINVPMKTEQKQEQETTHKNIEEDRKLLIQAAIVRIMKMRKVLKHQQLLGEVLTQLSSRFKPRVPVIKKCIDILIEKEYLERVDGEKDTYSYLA
T1 sequence (P62877 whole entry partner): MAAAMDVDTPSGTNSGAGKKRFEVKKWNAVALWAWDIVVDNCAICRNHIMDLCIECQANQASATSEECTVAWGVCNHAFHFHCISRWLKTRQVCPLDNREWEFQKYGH
Chain of ROC1-CUL1 (Q13616 whole entry): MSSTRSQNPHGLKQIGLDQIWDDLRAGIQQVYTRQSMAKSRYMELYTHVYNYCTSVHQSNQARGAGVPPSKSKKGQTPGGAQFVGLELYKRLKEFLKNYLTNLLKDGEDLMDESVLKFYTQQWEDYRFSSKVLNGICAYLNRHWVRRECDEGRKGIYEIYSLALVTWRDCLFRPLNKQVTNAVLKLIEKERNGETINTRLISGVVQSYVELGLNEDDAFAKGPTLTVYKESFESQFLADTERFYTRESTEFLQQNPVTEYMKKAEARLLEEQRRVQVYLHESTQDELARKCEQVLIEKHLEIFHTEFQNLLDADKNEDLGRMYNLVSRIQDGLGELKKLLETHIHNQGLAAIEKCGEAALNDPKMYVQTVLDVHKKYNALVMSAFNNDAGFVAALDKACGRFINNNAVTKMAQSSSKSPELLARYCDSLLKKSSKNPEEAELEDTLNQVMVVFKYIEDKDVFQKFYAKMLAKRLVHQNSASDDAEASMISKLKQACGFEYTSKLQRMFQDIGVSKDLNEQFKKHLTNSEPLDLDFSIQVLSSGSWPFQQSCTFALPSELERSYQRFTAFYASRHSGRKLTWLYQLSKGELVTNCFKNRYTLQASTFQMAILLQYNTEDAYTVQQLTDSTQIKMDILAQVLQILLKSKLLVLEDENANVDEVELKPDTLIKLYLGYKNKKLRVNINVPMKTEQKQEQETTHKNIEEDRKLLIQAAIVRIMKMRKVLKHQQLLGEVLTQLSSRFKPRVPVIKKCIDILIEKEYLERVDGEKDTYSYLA
Chain of ROC1-CUL1 (P62877 whole entry partner): as the sequence (P62877 whole entry partner) above
Chain of E3 CRL4^CRBN (Q13619 whole entry): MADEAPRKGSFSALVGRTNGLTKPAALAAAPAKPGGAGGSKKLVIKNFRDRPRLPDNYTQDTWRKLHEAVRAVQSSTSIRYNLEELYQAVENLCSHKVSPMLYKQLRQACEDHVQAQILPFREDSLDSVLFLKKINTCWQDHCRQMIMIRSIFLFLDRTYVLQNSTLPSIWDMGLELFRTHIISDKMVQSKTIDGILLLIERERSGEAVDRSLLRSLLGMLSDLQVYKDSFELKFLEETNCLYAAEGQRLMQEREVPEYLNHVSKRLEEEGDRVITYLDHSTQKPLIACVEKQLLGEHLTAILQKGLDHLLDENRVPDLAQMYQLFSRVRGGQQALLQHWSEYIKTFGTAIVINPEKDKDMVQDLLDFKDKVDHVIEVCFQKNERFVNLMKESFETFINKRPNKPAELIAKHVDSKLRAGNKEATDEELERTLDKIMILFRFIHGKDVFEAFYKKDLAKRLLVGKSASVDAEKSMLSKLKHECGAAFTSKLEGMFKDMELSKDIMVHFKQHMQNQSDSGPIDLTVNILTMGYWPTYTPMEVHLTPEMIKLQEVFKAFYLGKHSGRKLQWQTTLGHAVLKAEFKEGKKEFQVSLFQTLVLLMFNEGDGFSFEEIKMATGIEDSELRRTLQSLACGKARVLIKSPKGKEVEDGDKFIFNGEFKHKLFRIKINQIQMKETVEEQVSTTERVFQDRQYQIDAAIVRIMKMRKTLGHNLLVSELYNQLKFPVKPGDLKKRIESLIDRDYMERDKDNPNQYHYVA
Chain of E3 CRL4^CRBN (P62877 whole entry partner): as the sequence (P62877 whole entry partner) above
Chain of E3 CRL4^CRBN (Q16531 whole entry partner): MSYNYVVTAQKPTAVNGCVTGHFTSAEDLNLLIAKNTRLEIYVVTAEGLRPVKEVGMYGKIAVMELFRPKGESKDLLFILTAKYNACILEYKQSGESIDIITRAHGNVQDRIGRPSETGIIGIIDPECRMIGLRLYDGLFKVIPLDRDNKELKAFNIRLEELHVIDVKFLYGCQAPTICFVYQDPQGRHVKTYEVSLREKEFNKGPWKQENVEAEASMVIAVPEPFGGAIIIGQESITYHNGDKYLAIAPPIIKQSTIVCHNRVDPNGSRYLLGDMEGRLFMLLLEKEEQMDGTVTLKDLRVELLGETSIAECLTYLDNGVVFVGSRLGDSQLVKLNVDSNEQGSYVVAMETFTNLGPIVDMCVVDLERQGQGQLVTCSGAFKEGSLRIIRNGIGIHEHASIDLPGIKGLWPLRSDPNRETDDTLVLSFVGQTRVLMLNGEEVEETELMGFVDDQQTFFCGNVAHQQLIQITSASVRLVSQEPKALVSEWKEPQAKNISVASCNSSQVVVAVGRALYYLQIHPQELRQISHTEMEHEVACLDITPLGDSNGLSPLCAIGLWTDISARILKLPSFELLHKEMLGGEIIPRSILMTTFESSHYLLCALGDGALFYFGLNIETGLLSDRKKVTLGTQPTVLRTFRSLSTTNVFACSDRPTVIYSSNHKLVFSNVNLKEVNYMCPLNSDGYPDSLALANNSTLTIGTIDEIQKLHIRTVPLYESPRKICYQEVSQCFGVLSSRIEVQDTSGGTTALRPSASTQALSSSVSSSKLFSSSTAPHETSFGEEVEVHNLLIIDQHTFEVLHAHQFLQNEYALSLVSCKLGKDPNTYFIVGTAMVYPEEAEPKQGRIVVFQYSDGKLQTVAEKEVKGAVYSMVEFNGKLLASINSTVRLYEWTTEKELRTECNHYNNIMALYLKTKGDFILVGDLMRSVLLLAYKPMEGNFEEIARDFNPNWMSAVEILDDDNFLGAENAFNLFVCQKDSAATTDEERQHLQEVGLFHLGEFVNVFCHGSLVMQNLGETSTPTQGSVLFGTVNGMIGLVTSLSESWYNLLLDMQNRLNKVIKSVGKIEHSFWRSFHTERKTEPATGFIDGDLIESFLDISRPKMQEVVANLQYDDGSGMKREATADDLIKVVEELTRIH
Chain of E3 CRL4^CRBN (Q96SW2 whole entry partner): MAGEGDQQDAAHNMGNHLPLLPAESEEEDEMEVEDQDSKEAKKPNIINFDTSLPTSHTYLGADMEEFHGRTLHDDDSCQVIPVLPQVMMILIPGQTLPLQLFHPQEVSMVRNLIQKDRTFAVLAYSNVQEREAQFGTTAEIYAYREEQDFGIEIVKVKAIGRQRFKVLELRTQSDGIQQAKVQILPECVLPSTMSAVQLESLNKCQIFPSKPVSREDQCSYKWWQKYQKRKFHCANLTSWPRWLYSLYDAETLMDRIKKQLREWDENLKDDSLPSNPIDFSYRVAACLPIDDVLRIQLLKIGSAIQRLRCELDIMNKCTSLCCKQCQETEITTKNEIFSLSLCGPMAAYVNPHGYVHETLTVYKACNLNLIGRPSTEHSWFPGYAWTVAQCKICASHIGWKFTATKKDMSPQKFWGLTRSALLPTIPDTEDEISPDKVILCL

inhibition at 0.8 µM ([4]; 0.8 μM) | inhibition at 5 µM ([4]; 5 μM) | SMILES | Kd [1] | inhibition of ubiquitination of CK1α [2] | discharge of Cdc34-Ub and production of Ub2 by ROC1-CUL1 [3]
– | – | O=c1c(Oc2ccccc2)c(C(F)(F)F)oc2c(O)c(O)ccc12 [#33, 7,8-dihydroxy-3-phenoxy-2-(trifluoromethyl)-4H-chromen-4-one] | 1.84 µM | Significant inhibitory effects | showed inhibition
50% | 100% | Cc1ccc(C(=O)Nc2ccc(S(=O)(=O)O)c3cc(S(=O)(=O)O)cc(S(=O)(=O)O)c23)cc1NC(=O)c1cccc(NC(=O)Nc2cccc(C(=O)Nc3cc(C(=O)Nc4ccc(S(=O)(=O)O)c5cc(S(=O)(=O)O)cc(S(=O)(=O)O)c45)ccc3C)c2)c1 [Suramin, suramin] | – | – | –
